In article PMC11403612, “Preparation and Preclinical Characterization of a Simple Ester for Dual Exogenous Supply of Lactate and Beta-hydroxybutyrate” (Journal of Agricultural and Food Chemistry, 2024):

What was measured:
[1] = test system: plasma free fatty acids (FFA); assay: Plasma free fatty acids after oral LaKe in rats; type: in vivo, Sprague–Dawley rats; settings: 4.5 g/kg oral
Protocol: Male Sprague–Dawley rats (300–350g, Taconic, Ry, Denmark) were kept for acclimatization at a constant temperature of 23 °C with a 12 h light-dark cycle and with unlimited access to food and water. All animal handling was in accordance with national guidelines in Denmark and the guidelines from the Directive 2010/63/EU of the European Parliament on the protection of animals used for scientific purposes, and all experiments conformed to Danish Law (Act. No. 1306 of 23/11/2007). The experimental protocol was approved by the Danish Animal Expectorate (2018-15-0201-01475).
The rats were randomly selected to receive either LaKe (n = 8) or placebo (n = 8). […]
Concentrations of non-esterified free fatty acids (FFA) were measured using a NEFA-HR(2) kit (Wako, Chemicals Gmbh, Germany). Absorbance was measured by spectrometry (PHERAstar FS, BMG LABTECH, […]
Quantification of N-L-lactoyl phenylalanine (Lac-Phe) by LC-MS/MS […]
Pure calibrant samples were prepared from an authentic standard compound (N-L-lactoyl phenylalanine), using the plasma sample preparation method at concentrations equivalent to […] in the original sample. The lower limit of quantification for N-L-lactoyl phenylalanine (Lac-Phe) quantification was estimated to 10 nM. […]

[2] = In vitro stability in simulated gastric fluid; type: in vitro ADME; settings: simulated gastric fluid (SGF), pH = 1
Protocol: (§1) The in vitro stability of LaKe was evaluated following incubation in simulated gastric fluid (SGF), simulated intestinal fluid (SIF), fresh and frozen plasma (rats and humans, respectively), and the presence of hepatocytes (rats and humans) and liver microsomes (rats and humans). At the chosen time points, the mixtures were analyzed by LC-MS/MS to quantify the remaining LaKe and all assays included at least one control compound with known pharmacokinetic properties. […]
(§2) centrifuged at 4000 rpm, 4℃ for 20 min. 60 μL of supernatant was mixed with 180 μL of purified water for subsequent LC/MS/MS analysis.
(§3) LC-MS/MS Condition: ACQUITY UPLC BEH C18 1.7um 2.1 * 50mm Column (Part No.186002350). Mobile phase: A: 0.1% Formic Acid in Water; B: 0.1% Formic Acid in ACN. […]
(§4) Samples were incubated at 37 ℃, 600 rpm for the appointed time. At the chosen time points (60, 120, 360, 1440 minutes) samples were immediately mixed with 400 μL of cold acetonitrile containing 200 ng/mL tolbutamide and labetalol (internal standards). 200 μL of suspension was removed and mixed completely with 400 μL of cold acetonitrile containing 200 ng/mL tolbutamide and labetalol again. The T0 samples were prepared by transferring 198 μL of SIF solution to corresponding well after adding 400 μL of cold acetonitrile containing 200 ng/mL tolbutamide and then mixing completely. The samples were […]
(§5) Stability of LaKe in plasma […]

[3] = Stability of LaKe in plasma, rat; type: in vitro ADME
Protocol: as §1, §2, §3, §4, §5

[4] = Hepatocyte stability of LaKe, rat; type: in vitro ADME; settings: cryopreserved hepatocytes

## CC(O)CCOC(=O)C(C)O (stereo not drawn) [LaKe, 3-hydroxybutyl 2-hydroxypropanoate]
[1]; 75 min time point, compared to vehicle
  maximum suppression of FFA levels: > 40%
[1]; from 15 min until 105 min
  change in plasma free fatty acids compared to vehicle control: decrease
[2]
  half-life: > 720 min
[3]; fresh plasma from rats, 10 min
  detection of LaKe at the first time point: could not be detected
[3]; rat plasma (fresh)
  half-life at 2 µM: < 30 min
[4]
  half-life at 0.1 mg/mL: < 30 min
